Results reported in US20100069326A1, “Combination Therapies to Treat Cardio- and Cerebro-Vascular Disorders” (priority 2008, published 2010).
Where two headings read alike, the source gives them in different places.

Tests used:
[1] = system: rat middle cerebral artery occlusion (MCAO) model of stroke; conditions: cited from earlier work; for reducing infarct size (in words): dose of 30 mg/kg, triflusal versus aspirin
[2] = system: Male Wistar rats with unilateral MCAO (cerebral ischemia); test: Rat stroke model (permanent MCA occlusion), infarct volume assessment; format: in vivo; conditions: triflusal 30 mg/kg alone, 3 days after unilateral MCAO; for Infarct volume: three days, mean±SEM
Description: Male Wistar rats (265-360 g) were randomly divided into four treatment groups (n=5-9 for each group). Prior to and following surgery rats were housed in single cages (12/12 h light/dark cycle) and were fed at libitum. Prior to surgery, all rats were anaesthetized with a single dose of sodium pentobarbital (60 mg/kg ip) and placed in a David Kopf stereotaxic apparatus. Rectal temperatures were monitored and maintained constant at 37° C. by a heating pad while the rats were under anesthesia. The right MCA was exposed. […] Removal of a portion of the bone and exposure and ligation of the MCA was done with the aid of an operating stereomicroscope. Immediately following surgery, rats received one of the following treatments: 30 mg/kg triflusal or 30 mg/kg triflusal and 200 mg/kg dipyridamole or 10 mg/kg triflusal and 200 mg/kg dipyridamole or vehicle only for next three days. Three days after surgery, all animals were euthanized via pentobarbital overdose and perfused transaortically first with saline which was immediately followed by a low perfusion for about 1 h with 2% solution of triphenyl-tetrazolium chloride (TTC) that is followed by 4% formaldehyde (pH 7.4). The brains were removed and coronal sections (1 mm) were cut for infarct measurement. Investigator was blind to the sample treatment. Serial brain sections were examined and the areas of infarcted tissue were measured (SigmaScan […].0, SPSS Inc., Chicago Ill., USA). In addition, the hemispheric areas of each tissue section were measured to account for any brain swelling that might have occurred following cerebral ischemia. The volume of the infarct was calculated in mm^3 by integrating the infarct sizes for each of the tissue sections that contained infarcted tissue. The 1 mm sections were photographed using a Nikon digital camera. Results are expressed as mean±SEM of each measure. The volumes of the infarcts for each of the groups were compared by Student's unpaired two-tailed t tests. Significance was set at p≦0.05. Correlations between parameters were tested by linear regression analysis

[3] = system: cAMP phosphodiesterase; conditions: compared with aspirin; cited from earlier work

Structure (SMILES)	reducing infarct size (in words) [1]	Infarct volume [2] [mm^3]	Infarct volume ([2]; listed as triflusal) [mm^3]	Infarct reduction ([2]; vs vehicle) [%]	infarct reduction in the MCAO model ([1]; triflusal 10 mg/kg/day, not significant neuroprotection) [%]	infarct reduction in the MCAO model ([1]; triflusal 30 mg/kg/day, significant neuroprotection) [%]	potency as inhibitor of cAMP phosphodiesterase relative to aspirin [3]
CC(=O)Oc1ccccc1C(=O)O [aspirin]	equally effective	–	–	–	–	–	–
CC(=O)Oc1cc(C(F)(F)F)ccc1C(=O)O [Triflusal, 2-acetoxy-4-trifluoromethylbenzoic acid]	equally effective	73.59 ± 7.0	73.59±7.0	30.72 ± 6.6	12.56	43.95	five times more potent
